We go through three compounds from patent US6306613A, “Modulators of leaderless protein export and methods for identifying and using the same” (Ciblex Corporation, priority 1999, dated 2001).

Molecules are shown by their SMILES.

Assay [1] concerns secretion of hCG-α from COS cells. The note with it: cited from earlier work.
Assay [2] deals with export of 18 kD FGF-2 from COS cells. The note with it: 25 μg/ml in chase medium; cited from earlier work.
Assay [3] deals with secretion of hCG-α from COS cells. The assay can be described thus: hCG-α secretion from transfected COS cells (leader sequence control). It counts as cell-based. As to the method: An expression vector encoding hCG-cc (Guan et al., J. Biol. Chem. 263:5306-5313, 1988), which has a signal sequence, is used as a control to monitor proteins trafficked through the ER/Golgi.
COS cells are co-transfected as described above with plasmids expressing FGF-2, hCG-α, or neomycin phosphotransferase. Metabolic labeling is performed as described above, except that during the chase period, modulator that inhibits export is added at 10 nM to 1 mM in log increments. At the end of the chase, cells and cell media are harvested and processed for immune precipitations as described above.

Assay [4] concerns VSV N protein export from COS cells. It counts as cell-based.
In assay [5] the test system is FGF-2 export from Na+/K+ ATPase α1 co-transfected COS cells. The assay can be described thus: FGF-2 export from COS cells co-transfected with rat Na+/K+ ATPase α1. The assay is classed as cell-based. The conditions noted are these: twenty-four hours post labeling.
Assay [6] deals with IL-1α export from COS cells. Kind of assay: IL-1α export from transfected COS cells. It counts as cell-based. The note with it: 5 mM. The text has this: A vector containing a leaderless protein gene. IL-1α, is transfected into COS cells. Cells are metabolically labeled and protein precipitated with anti-IL-1α antibody. […] In contrast to the export of FGF-2, the rate of IL-1 export is slower, having a T1/2 of greater than 24 hrs. […] In addition, IL-1α can be immunoprecipitated from co-transfected COS cells (transfected with IL-1α and the Na/K ATPase α1 subunit) using anti-α1 subunit antibody (FIG. 4).

Assay [7] has as its system export of FGF-2 mutein Arg118Ile from COS cells. Kind of assay: FGF-2 mutein export with ouabain, Arg118Ile. The assay is classed as cell-based.
Assay [8] relates to export of FPT (FGF-2 neomycin phosphotransferase chimeric protein) from COS cells. The assay can be described thus: Export of FPT chimera from COS cells. The assay is classed as cell-based.
Assay [9] deals with export of FGF-2 mutein Lys134Thr (K134T) from COS cells. Kind of assay: FGF-2 mutein export with ouabain, Lys134Thr. It counts as cell-based.
For assay [10], the system named is export of FGF-2 mutein Lys144Val (K144V) from COS cells. The assay can be described thus: FGF-2 mutein export with ouabain, Lys144Val. It counts as cell-based.
In assay [11] the test system is export of F-gal (FGF-2 β-gal chimeric protein) from COS cells. Kind of assay: Export of F-gal chimera from COS cells. The assay is classed as cell-based.
For assay [12], the system named is export of FGF-2 mutein Cys78Ser + Cys96Ser (C78,96S) from COS cells. The assay can be described thus: FGF-2 mutein export with ouabain, Cys78Ser + Cys96Ser. It counts as cell-based.
Assay [13] concerns export of 18 kD FGF-2 from COS cells. Kind of assay: FGF-2 export from transfected COS cells, pulse-chase and immunoprecipitation. It counts as cell-based. The note with it: for inhibition of export of FGF-2 / IC50: COS cells; for inhibition of export of FGF-2: 10 nM to 1 mM in chase; for IC50: FGF-2 export, modulator in chase medium, read-out: concentration that inhibits 50% of leaderless protein export. How it is done: For an immunoprecipitation assay after transfection, the COS cells are metabolically pulse-labeled for 15 minutes with 100 μCi of ^35 S-methionine and ^35 S-cysteine (Trans ^35 S-label, ICN Biomedicals, Irvine, Calif.) in 1 ml of methionine and cysteine free DMEM. Following labeling, the cell monolayers are washed once with DMEM supplemented with excess (10 mM) unlabeled methionine and cysteine for 1-2 minutes. Cells are then cultured in 2 ml of this medium for the indicated lengths of time and the cell supernatants are immunoprecipitated for the presence of leaderless protein. For the indicated cultures, chase medium is supplemented with modulator at the indicated concentrations.
COS cells are cultured in Dulbecco's Modified Eagle Medium (DMEM, University of California San Diego Core Facility) supplemented with 10% fetal bovine serum (Gemini Bioproducts, Inc.), 2 mM L-glutamine, 1 mM sodium pyruvate, 0.1 mM non-essential amino acids, 100 units/ml penicillin, and 100 units/ml streptomycin. An SV-40-based expression vector containing the wild type (human) cDNA encoding multiple FGF-2 isoforms (24, 23, 22 and 18-kD) has been described previously (Florkiewiczand Sommer, supra). Approximately 3×10^5 COS cells in a 60 mm tissue culture dish are transfected with 10 μg of CsCl-purified plasmid DNA mixed with 1.0 ml of transfection buffer (140 mM NaCl, 3 mM KCl, 1 mM CaC'2, 0.5 mM MgCl2, 0.9 mM Na2 HPO4, 25 mM Tris pH 7.4; all from Sigma Chemical Company, Stl. Louis, Mo.). Under these co-transfection conditions using 2 μg of p18dx plus 10 μg pMAMneo, greater than 70% of transfected cells express both proteins, as determined by immunofluorescence microscopy. The ratio of plasmid DNA may be varied with an insignificant change in results. Forty to 48 hours post-DNA transfection COS cells are metabolically pulse-labeled for 15 minutes with 100 μCi of ^35 S-methionine and ^35 S-cysteine (Trans^35 S-label, ICN Biomedicals, Inc.) in 1.0 ml of methionine-and cysteine-free DMEM. After pulse-labeling, the cell monolayers are washed once with DMEM supplemented with excess (10 mM) unlabeled methionine and cysteine (Sigma Chemical Company) and then cultured in 1.0 ml of the same medium (chase) for the indicated lengths of time. Cultures treated with brefeldin A include 15 μg/ml of brefeldin A in the chase medium. Chase medium is also supplemented with 25 μg/ml heparin (Sigma Chemical Company). Although heparin is not necessary to qualitatively detect FGF-2 export, it is necessary in order to quantitatively detect the export of FGF-2 in this assay.
Cell and medium fractions are prepared for immunoprecipitation essentially as described previously (Florkiewicz et al., 1991) except that 400 μl of lysis buffer without NaCl (1% NP-40, 0.5% deoxycholate, 20 mM Tris pH 7.5, 5 mM EDTA, 2 mM EGTA, 0.01 mM phenylinethylsufonyl fluoride, 10 ng/ml aprotiniul, 10 ng/ml leupeptin, and 10 ng/ml pepstatin) is added to the medium fraction clarified by microfuge centrifugation for 15 minutes at 4° C. before adding immune serum. Both cell and medium fractions are incubated with a 1:200 dilution of guinea pig anti-FGF-2 immune serum (prepared in our laboratory) at 21° C. for 40 minutes and then GammaBind G Sepharose® (Pharmacia LKB Biotechnology) is added for an additional 30 minute incubation. […]

The test system of assay [14] is export of FGF-2 mutein Arg53Trp (R53W) from COS cells. Kind of assay: FGF-2 mutein export with ouabain, Arg53Trp. The assay is classed as cell-based.

On to `C[C@H]1CCC/C=C/[C@@H]2C[C@H](O)C[C@H]2[C@H](O)/C=C/C(=O)O1` [Brefeldin A], for which the “sensitivity of hCG-α secretion” value in assay [1] is reported as “brefeldin sensitive”. The “effect on FGF-2 export” value in assay [2] is “no substantial effect”.

With `C[C@@H]1O[C@@H](O[C@H]2C[C@@H](O)[C@]3(CO)[C@H]4[C@H](O)C[C@]5(C)[C@@H](C6=CC(=O)OC6)CC[C@]5(O)[C@@H]4CC[C@]3(O)C2)[C@H](O)[C@H](O)[C@H]1O` [Ouabain], the “effect on secretion of hCG-α” value in assay [3] was “does not affect secretion of hCG-α”. Besides, the “sensitivity of N protein export” value in [4] was “ouabain-resistant”. Moreover, the “FGF-2 in media at 1 mM” value in [5] is reported as “significant amounts of FGF-2 can be detected in media”. Also, the “inhibition of IL-1α export” value in [6] is on record as “inhibted”. The “Effect of Ouabain on Export” value in assay [7], in [10] (Lys144Val), in assay [12] (Cys78Ser + Cys96Ser) and in assay [14] (Arg53Trp) was “decrease” in each case. The “FGF-2 in Cells, 7 hr (+) Ouabain” value in assay [7] worked out at 79%; in [9], 70%; in [10] (K144V), 70%; in assay [12] (C78,96S) it was 62%; in [14] (R53W), 70%. Moreover, the “FGF-2 in Media, 7 hr (+) Ouabain” value in [7] is reported as 21%; in [9], 30%; in assay [10] (K144V), 30%; in assay [12] (C78,96S) it was 38%; in assay [14] (R53W), 30%. Moreover, the “inhibition of export of FPT” value in [8] was “can be inhibited”. Besides, the “inhibition of export of F-gal” value in assay [11] is “can be inhibited”. Moreover, the “inhibition of FGF-2 export at 1 mM” value in assay [13] (1 mM, FGF-2 only transfected COS cells) was “completely inhibit”. Moreover, the “inhibition of export of FGF-2” value in assay [13] is “inhibit”. Further, the IC50 in assay [13] is approximately 100 nM.

For the compound `C[C@H]1O[C@@H](O[C@H]2[C@@H](O)C[C@H](O[C@H]3[C@@H](O)C[C@H](O[C@H]4CC[C@@]5(C)[C@H](CC[C@@H]6[C@@H]5C[C@@H](O)[C@]5(C)[C@@H](C7=CC(=O)OC7)CC[C@]65O)C4)O[C@@H]3C)O[C@@H]2C)C[C@H](O)[C@@H]1O` [digoxin], in assay [13], the “inhibition of export of FGF-2” value is recorded as “inhibit” and the IC50 was approximately 5000 nM.
